In US5498780A, “Platinum complex and malignant tumor treating drug containing the same” (SS Pharmaceutical Co., Ltd., priority 1994, dated 1996):

Columns and labels:
[1] = system: murine P388 leukemia cell; assay: Antitumor effect on murine P388 leukemia cell; assay type: in vivo, murine; male CDF1 mice; details: Table 9 test lot; for ILSmax (maximum percent increase in life-span) / ILS50 (dose which shows 50% of the ILS value by 5 administrations) / dose corresponding to ILSmax: P388, i.p. once a day for 5 days; for ILSmax (maximum percent increase in life-span): 30 days observation; for ILS50 (dose which shows 50% of the ILS value by 5 administrations): linear regression; for TI (therapeutic index, LD50 value/ILS50 value): P388
Experimental: (§1) Murine L1210 leukemia cells (1×10^5 cells) were inoculated peritoneally into six-week-old male CDF1 mice on day 0. From the next day after the inoculation, a drug (the compound of the invention or a compound for comparison) was administered peritoneally once a day for 5 days. After 30 days of observation, the percent increase in life-span (ILS) was calculated as follows: […]
(§2) T: mean survival days of the drug-treated group
(§3) C: mean survival days of control group
(§4) In these tables, ILSmax means maximum ILS value (%), and corresponding dose (mg/kg) is Shown in parenthesis.
Antitumor effect on murine P388 leukemia cell:
The test of Test Example 1 was repeated except that 1×10^6 of murine P388 leukemia cells were used instead of 1×10^5 of murine L1210 leukemia cells.

[2] = system: murine L1210 leukemia cell; assay: Antitumor effect on murine L1210 leukemia cell (increase in life-span of inoculated mice); assay type: in vivo, murine; male CDF1 mice; details: Table 5 test lot; for ILSmax (maximum percent increase in life-span) / ILS50 (dose which shows 50% of the ILS value by 5 administrations) / dose corresponding to ILSmax: L1210, i.p. once a day for 5 days; for ILSmax (maximum percent increase in life-span): 30 days observation; for ILS50 (dose which shows 50% of the ILS value by 5 administrations): linear regression; for TI (therapeutic index, LD50 value/ILS50 value): L1210
Experimental: as §1, §2, §3, §4

[3] = 50% lethal dose by single peritoneal administration, obtained at the time of the dose setting; assay type: in vivo, CDF1 mice
Excerpt: as §4

[4] = system: cisplatin-resistant murine L1210 leukemia cell (L1210/DDP); assay: Antitumor effect on cisplatin-resistant murine L1210 leukemia cell (L1210/DDP); assay type: in vivo, murine; male CDF1 mice; details: Table 7 test lot; for ILSmax (maximum percent increase in life-span) / dose corresponding to ILSmax / ILS50 (dose which shows 50% of the ILS value by 5 administrations): i.p. once a day for 5 days; for ILSmax (maximum percent increase in life-span): 30 days observation; for ILS50 (dose which shows 50% of the ILS value by 5 administrations): linear regression
Experimental: as §1, §2, §3
In these tables, ILSmax means maximum ILS value (%), and corresponding dose (mg/kg) is Shown in parenthesis. In this test, cisplatin and carboplatin were respectively tested in each test lot for accurate comparison.
Antitumor effect on cisplatin-resistant murine L1210 leukemia cell (L1210/DDP):
The test of Test Example 1 was repeated except that cisplatin-resistant murine L1210 leukemia cell (L1210/DDP) was used instead of murine L1210 leukemia cell.

## N.NOC1CCCCC1.[Cl][Pt][Cl] [Compound No. 9, cis-dichloroammine (O-cyclohexylhydroxylamine)platinum(II)]
[1]
  ILSmax (maximum percent increase in life-span): 114.4%
  ILS50 (dose which shows 50% of the ILS value by 5 administrations): < 1.0 mg/kg
  dose corresponding to ILSmax: 4.0 mg/kg
  TI (therapeutic index, LD50 value/ILS50 value): > 22.1
[2]
  ILSmax (maximum percent increase in life-span): 108.8%
  ILS50 (dose which shows 50% of the ILS value by 5 administrations): 1.3 mg/kg
  dose corresponding to ILSmax: 4.0 mg/kg
  TI (therapeutic index, LD50 value/ILS50 value): 17.0
[3]
  LD50 (50% lethal dose): 22.1 mg/kg
[4]
  TI (therapeutic index, LD50 value/ILS50 value): > 22.1
  ILSmax (maximum percent increase in life-span): > 206.1%
  dose corresponding to ILSmax: 1.0 mg/kg
  ILS50 (dose which shows 50% of the ILS value by 5 administrations): < 1.0 mg/kg

## CCCO[NH][Pt]([NH2])([Cl])[Cl] [Compound No. 8, cis-dichloroammine (O-propylhydroxylamine)platinum(II)]
[1]
  ILSmax (maximum percent increase in life-span): 101.9%
  ILS50 (dose which shows 50% of the ILS value by 5 administrations): < 0.5 mg/kg
  dose corresponding to ILSmax: 2.0 mg/kg
  TI (therapeutic index, LD50 value/ILS50 value): > 22.0
[2]
  ILSmax (maximum percent increase in life-span): > 131.3%
  ILS50 (dose which shows 50% of the ILS value by 5 administrations): 0.8 mg/kg
  dose corresponding to ILSmax: 4.0 mg/kg
  TI (therapeutic index, LD50 value/ILS50 value): 13.8
[3]
  LD50 (50% lethal dose): 11.0 mg/kg
[4]
  TI (therapeutic index, LD50 value/ILS50 value): > 22.0
  ILSmax (maximum percent increase in life-span): > 175.5%
  dose corresponding to ILSmax: 1.0 mg/kg
  ILS50 (dose which shows 50% of the ILS value by 5 administrations): < 0.5 mg/kg
